Legend:
[1] = test system: caspase 3 (Cas-3), active form p17; assay: Ex vivo Western blot of tumour tissues, cleaved caspase 3; type: in vivo, mice; conditions: pooled tumour samples
Experimental: Frozen tumour samples were homogenized by a bench blender IKA DI25 (IKA-Werke, Germany) in the presence of a lysis buffer [cOmplete Protease Inhibitor Cocktail (Roche, Germany), 50 mM Tris-HCl pH 7.5, 1 mM EGTA, 1 mM EDTA, 1 mM sodium orthovanadate, 50 mM sodium fluoride, 5 mM sodium pyrophosphate, 270 mM sucrose, 0.5% (v/v) Triton X-100]. Subsequently, the blended samples were centrifuged at 9.000 g at 4°C for 15 min. The supernatants were collected and the protein concentration was measured by the Brandford’s method using the Brandford reagent (Amresco, USA) according to the manufacturer’s manual. The measured samples were stored at -80°C for the following experiments.
The expression of caspase 3, MCL-1, p53, and β-actin as loading control were evaluated by Western blot analysis and immunodetection. Lysates were mixed with a denaturing loading dye [250 mM Tris-HCl pH 6.8, 5% (v/v) β-mercaptoethanol, 10% (w/v) sodium dodecyl sulfate, 30% (v/v) glycerol, 0.04% (w/v) bromophenol blue], heated for 5 min at 70°C. […] The final protein amount was 50 μg per well. After protein separation in the gel, they were transferred on the Immun-Blot polyvinylidene difluoride membrane 0.2 μm (Bio-Rad, USA). Then, the membrane was blocked by 5% (w/v) BSA in TBST [10 mM Tris-HCl pH 7.5, 150 mM NaCl, 0.1% (v/v) Tween-20]. […] HRP was detected by Clarity Western ECL Substrate (Bio-Rad, USA) using chemiluminescent documentation system Syngene PXi-4 (UK).

[2] = test system: human non-cancerous hepatocytes (Hep); assay: In vitro cytotoxicity testing (MTT assay), hepatocytes; type: cell-based; conditions: 24 h drug exposure, no recovery
Experimental: (§1) A2780 ovarian carcinoma, A2780R cisplatin-resistant ovarian carcinoma, HOS osteosarcoma, G361 malignant melanoma, MCF7 breast carcinoma, A549 lung carcinoma, HeLa cervix carcinoma, 22Rv1 prostate carcinoma and Caco-2 colorectal carcinoma human cancer cell lines were purchased from the European Collection of Cell Cultures (ECACC), while the human non-cancerous hepatocytes (Hep) were supplied by Biopredic Intl. The cell lines were cultured, according to the suppliers`instructions, in RPMI-1640 medium supplemented with 10% of fetal calf serum, 1% of 2 mM glutamine, and 1% penicillin/streptomycin. All cell lines were grown as adherent monolayers at 37°C and 5% CO2 in a humidified atmosphere.
(§2) The cells were seeded to 96-well culture plates, pre-incubated in drug-free media at 37°C for 24 h and treated typically with the 0.01–50.0 μM solutions, prepared from the stock solutions by dilution with medium, for 24 h at 37°C. […] In parallel with compounds 1–8 and the reference drugs, the cells were also treated with vehicle (0.1% DMF in medium; negative control) and Triton X-100 (1%; positive control) to assess the minimal and maximal cell damage, respectively. The MTT assay was used to determine the cell viability; MTT = 3-(4,5-dimethylthiazol-2-yl)-2,5-diphenyltetrazolium bromide. A concentration of the formed dye was evaluated spectrophotometrically at 540 nm (TECAN, Schoeller Instruments LLC).
(§3) The data were expressed as the percentage of viability, where 100% and 0% represents the treatments with negative and positive controls, respectively. The data from the cancer cells were acquired from three independent experiments (conducted in triplicate) using cells from different passages. The resulting IC50 values (μM) were calculated from viability curves and the results are presented as arithmetic mean±SD.

[3] = test system: A2780R cisplatin-resistant ovarian carcinoma cells; assay: In vitro cytotoxicity testing (MTT assay), A2780R; type: cell-based, human; conditions: for resistance factor (RF), IC50(A2780R)/IC50(A2780): 24 h IC50 values; for IC50: 24 h drug exposure, no recovery, MTT, read-out: IC50±SD, A2780R
Experimental: All cell lines were grown as adherent monolayers at 37°C and 5% CO2 in a humidified atmosphere.
The MTT assay was used to determine the cell viability; MTT = 3-(4,5-dimethylthiazol-2-yl)-2,5-diphenyltetrazolium bromide. A concentration of the formed dye was evaluated spectrophotometrically at 540 nm (TECAN, Schoeller Instruments LLC).
as §3

[4] = test system: HeLa cervix carcinoma cells; assay: In vitro cytotoxicity testing (MTT assay), HeLa; type: cell-based, human; conditions: 24 h drug exposure, no recovery, read-out: IC50±SD, HeLa
Experimental: as §1, §2, §3

[5] = test system: A549 lung carcinoma cells; assay: In vitro cytotoxicity testing (MTT assay), A549; type: cell-based, human; conditions: 24 h drug exposure, no recovery, read-out: IC50±SD, A549
Experimental: as §1, §2, §3

[6] = test system: spleen, renal tissue and tumour tissues of L1210 leukaemia-bearing mice; assay: Histological observations (light microscopy, semi-quantitative); conditions: relative scale 0 to 4
Description: Randomly selected paraffin block preparations were stained by standard hematoxylin and eosin stain for light microscopic evaluation. Due to high cellularity, the semi-quantitative method was used for the evaluation of necrosis in well-circumcised and diffuse tumour samples and PMN cells infiltration in normal tissues as an indirect sign of toxicity to healthy tissues. The evaluation of necrotic processes and infiltration by PMN cells was semi-quantitative, based on the percentage of necrotic areas and/or infiltrated area in the view-field of at least three different samples.

HOS osteosarcoma cells = assay: In vitro cytotoxicity testing (MTT assay), HOS; type: cell-based, human; conditions: for IC50: 24 h drug exposure, no recovery, MTT, read-out: IC50±SD, HOS; for selectivity factor IC50(Hep)/IC50(cancer cell line): HOS; for times more potent than cisplatin: HOS cell line
Experimental: as §1, §2, §3

pUC19 plasmid dsDNA = assay: Gel electrophoresis studies of interaction with pUC19 plasmid dsDNA; design: species or system Escherichia coli; conditions: 37°C, 24 h; for effect on electrophoretic mobility of pUC19 forms (SC, OC, L): 0.23-2.30 μM
Experimental: Supercoiled pUC19 plasmid dsDNA (2686 bp, 1750 kDa) was isolated from Escherichia coli TOP10F’ by QIAprep Spin Miniprep Kit (Qiagen, Germany). The concentration and purity of the isolated plasmid DNA were evaluated spectrophotometrically. Plasmid was dissolved in nuclease-free water and stored at –20°C.
2 μL of these solutions were added to 18 μL of the pUC19 plasmid DNA water solution (300 ng per reaction, corresponding to a concentration of 23 μM calculated for the base pairs) and the mixture was left to react in the final 10% DMF/90% water solution containing the final concentrations of the complexes of 2.30, 1.15 and 0.23 μM, corresponding to 0.10, 0.05 and 0.01 metal-to-base pair stoichiometry. In parallel, the experiment was performed on plasmid DNA in the 10% DMF/90% water solution and in water. The reaction mixtures were incubated at 37°C for 24 h. An electrophoretic mobility was evaluated by gel electrophoresis ([…], 3 h) performed on a 0.8% (w/v) agarose gel containing EtBr (2.0 mg/L (w/v)) at ambient temperature in Tris-acetate/EDTA buffer. The bands on the obtained electrophoretogram were detected by an MUV21-CP-02 gel scanner (Major Science) and analysed with AlphaEaseFC software (version 4.0.0.34, Alpha Innotech) in order to evaluate the relative percentages of the SC, OC and L forms. Each experiment was performed in triplicate.

[7] = test system: 22Rv1 prostate carcinoma cells; assay: In vitro cytotoxicity testing (MTT assay), 22Rv1; type: cell-based, human; conditions: 24 h drug exposure, no recovery, read-out: IC50±SD, 22Rv1
Experimental: as §1, §2, §3

[8] = test system: G361 malignant melanoma cells; assay: In vitro cytotoxicity testing (MTT assay), G361; type: cell-based, human; conditions: 24 h drug exposure, no recovery, read-out: IC50±SD, G361
Experimental: as §1, §2, §3

[9] = test system: L1210 mouse lymphocytic leukaemia cells; assay: In vivo antitumour activity testing, L1210 lymphocytic leukaemia model; design: species or system mice; conditions: i.p.; for tolerability / signs of toxicity (e.g. weight loss) / percentage of mean survival time T/C / mean survival time ± SD: dose equimolar to cisplatin 2 mg/kg; for mean survival time ± SD: 10 days after implantation, control 17.4±1.6 days
Experimental: The experimental animals used for in vivo antitumour testing were female DBA/2 SPF mice obtained from Charles Rivers Laboratories. The animals were housed in the Sealsafe NEXT—IVC Blue Line Housing System (Tecniplast, Italy) to ensure the best possible experimental conditions and eliminate the risk of possible intergroup cross-contamination, and kept in Plexiglas cages at constant temperature (22±1°C) and relative humidity of 55±5% for one-week adaptation period before the start of the experiment. All experimental procedures were performed according to the National Institute of Health (NIH) Guide for the Care and Use of Laboratory Animals. The protocol was approved by the Expert Committee on the Protection of Animals Against Cruelty at the University of Veterinary and Pharmaceutical Sciences Brno (Permit Number: 71/2013). The number of pharmacological interventions was limited to the necessary minimum in order to minimize the suffering of animals, which were observed regularly for the symptoms connected with the tumour progression. […] No animals had to be sacrificed due to the above mentioned criteria of humane treatment and no post-application deaths within the 2 hours after the application were observed during the experiment. […] The animal tissues for the ex vivo experiments and histological evaluations were taken post mortem, in case of surviving animals immediately after they were sacrificed by the lethal dose of carbon dioxide inhalation, immediately followed by the cervical dislocation.
The animals were monitored several times a day for the signs of tumour progression and distress development.

SMILES | level of active form of Cas-3 in tumour tissue [1] | IC50 [2] [µM] | resistance factor (RF), IC50(A2780R)/IC50(A2780) [3] | IC50 [3] [µM] | IC50 [4] [µM] | IC50 [5] [µM] | Areas of necrosis in tumour tissues [6] | Infiltration of renal tissues (PMN cells) [6] | Infiltration of spleen (PMN cells) [6] | IC50 (HOS osteosarcoma cells) [µM] | selectivity factor IC50(Hep)/IC50(cancer cell line) (HOS osteosarcoma cells) | times more potent than cisplatin (HOS osteosarcoma cells) [times] | effect on electrophoretic mobility of pUC19 forms (SC, OC, L) (pUC19 plasmid dsDNA) | IC50 [7] [µM] | IC50 [8] [µM] | tolerability / signs of toxicity (e.g. weight loss) [9] | percentage of mean survival time T/C [9] [%] | mean survival time ± SD [9] [days] | maximum tolerated dose ([9]; mice) [mg/kg] | amount of damaged OC and linear (L) forms of pUC19 DNA (pUC19 plasmid dsDNA; concentration-dependent)
Brc1cc[n+]([Pt-2]([I])([I])[n+]2ccc(Br)c3cc[nH]c32)c2[nH]ccc12 [Complex 6, cis-[Pt(4Braza)2I2]] | has not been observed | 4.1 | 1.03 | 3.3 ± 0.4 | 3.8 ± 0.2 | 4.3 ± 0.9 | 1–2 | 1 (1 = up to 25%) | 2 (2 = up to 50%) | 0.4 ± 0.1 | ~10 | ≤ 47 | did not significantly change the mobility | 3.8 ± 0.1 | 3.2 ± 0.2 | well-tolerated | 99 | 17.3 ± 2.1 | – | –
N.N.[Cl][Pt][Cl] [Cisplatin, cisplatin, reference compound] | has not been observed | > 75 | – | > 50 | 30.4 ± 11 | > 50 | 3 (3 = up to 75%) | 1 (1 = up to 25%) | 1 (1 = up to 25%) | 18.9 ± 1.7 | – | – | increase the electrophoretic mobility | 26.9 ± 3.5 | 5.3 ± 0.7 | – | 108 | 18.8 ± 2.4 | 2 | –
Cc1cc2c(Cl)cc[n+]([Pt-2]([I])([I])[n+]3ccc(Cl)c4cc(C)[nH]c43)c2[nH]1 [Complex 8, cis-[PtI2(2Me4Claza)2]] | dramatically increased | 9.5 | 0.59 | 1 ± 0.4 | 3.8 ± 0.1 | 3.5 ± 0.2 | 3 (3 = up to 75%) | 0–1 | 1–2 | 0.7 ± 0.2 | ~14 | ≤ 47 | did not significantly change the mobility | 3.5 ± 0.2 | 1.7 ± 1.3 | well-tolerated | 109 | 19.0 ± 2.4 | – | visibly increased

— paper PMC5131915, “Platinum(II) Iodido Complexes of 7-Azaindoles with Significant Antiproliferative Effects: An Old Story Revisited with Unexpected Outcomes” (PLoS ONE, 2016)
